Measured values reported in the RepoRT retention time repository (doi:10.1016/j.jchromb.2020.122105).

What was measured:
Conditions in all cases: stereoisomer not certain
[1] = RP, Waters CORTECS T3, 100 × 2.1 mm, 2.7 µm, 0.3 mL/min, estimated dead time 0.73 min; A: water + 0.1% formic acid, pH 3; B: methanol + 0.1% formic acid, pH 3; gradient (min/%B) 0/0 5/0 25/100 30/100 30.1/0 35/0
[2] = RP, Waters ACQUITY UPLC BEH C18, 100 × 2.1 mm, 1.7 µm, 0.1 mL/min, estimated dead time 2.2 min; A: water + 0.1% formic acid, pH 3; B: methanol + 0.1% formic acid, pH 3; gradient (min/%B) 0/5 5/5 25/95 25.1/100 35/100 35.1/5 45/5
[3] = RP, Waters CORTECS T3, 100 × 2.1 mm, 2.7 µm, 0.25 mL/min, estimated dead time 0.88 min; A: water + 0.1% formic acid, pH 3; B: methanol + 0.1% formic acid, pH 3; gradient (min/%B) 0/0 1/0 6/5 30/100 35/100 35.1/0 40/0
[4] = RP, Waters ACQUITY UPLC BEH C18, 100 × 2.1 mm, 1.7 µm, 0.1 mL/min, estimated dead time 2.2 min; A: water + 0.1% formic acid, pH 3; B: methanol + 0.1% formic acid, pH 3; gradient (min/%B) 0/5 5/5 25/95 25.1/100 35/100 35.1/5 45/5; remark: listed apart in the source
[5] = RP, Waters ACQUITY UPLC BEH C18, 100 × 2.1 mm, 1.7 µm, 0.1 mL/min, estimated dead time 2.2 min; A: water + 0.045% formic acid + 0.11% ammonium hydroxide, pH 7; B: methanol; gradient (min/%B) 0/5 5/5 25/95 25.1/100 35/100 35.1/5 45/5
[6] = RP, Waters CORTECS T3, 100 × 2.1 mm, 2.7 µm, 0.1 mL/min, estimated dead time 2.2 min; A: water + 0.1% formic acid, pH 3; B: methanol + 0.1% formic acid, pH 3; gradient (min/%B) 0/0 1/0 6/5 30/100 35/100 35.1/0 40/0
[7] = RP, Waters CORTECS T3, 100 × 2.1 mm, 2.7 µm, 0.15 mL/min, estimated dead time 1.5 min; A: water + 0.1% formic acid, pH 3; B: methanol + 0.1% formic acid, pH 3; gradient (min/%B) 0/0 1/0 6/5 30/100 35/100 35.1/0 40/0
[8] = RP, Waters CORTECS T3, 100 × 2.1 mm, 2.7 µm, 0.1 mL/min, estimated dead time 2.2 min; A: water + 0.1% formic acid, pH 3; B: methanol + 0.1% formic acid, pH 3; gradient (min/%B) 0/5 5/5 25/95 25.1/100 35/100 35.1/5 45/5
[9] = RP, Waters CORTECS T3, 100 × 2.1 mm, 2.7 µm, 0.2 mL/min, estimated dead time 1.1 min; A: water + 0.1% formic acid, pH 3; B: methanol + 0.1% formic acid, pH 3; gradient (min/%B) 0/0 1/0 6/5 30/100 35/100 35.1/0 40/0
[10] = RP, Thermo Scientific Hypercarb, 150 × 2.1 mm, 5 µm, 0.1 mL/min, estimated dead time 3.3 min; A: water + 0.1% formic acid, pH 3; B: methanol + 0.1% formic acid, pH 3; gradient (min/%B) 0/5 5/5 20/100 35/100 35.1/5 45/5
[11] = RP, Waters CORTECS T3, 100 × 2.1 mm, 2.7 µm, 0.3 mL/min, estimated dead time 0.73 min; A: water + 0.1% formic acid, pH 3; B: methanol + 0.1% formic acid, pH 3; gradient (min/%B) 0/5 5/5 25/100 30/100 30.1/5 35/5
[12] = RP, Waters ACQUITY UPLC BEH C18, 100 × 2.1 mm, 1.7 µm, 0.1 mL/min, estimated dead time 2.2 min; A: water + 0.1% formic acid, pH 3; B: methanol + 0.1% formic acid, pH 3; gradient (min/%B) 0/5 5/5 25/100 30/100 30.1/5 35/5
[13] = RP, Waters CORTECS T3, 100 × 2.1 mm, 2.7 µm, 0.2 mL/min, estimated dead time 1.1 min; A: water + 0.045% formic acid + 0.11% ammonium hydroxide, pH 7; B: methanol; gradient (min/%B) 0/5 5/5 25/95 25.1/100 35/100 35.1/5 45/5
[14] = RP, Waters CORTECS T3, 100 × 2.1 mm, 2.7 µm, 0.3 mL/min, estimated dead time 0.73 min; A: water + 0.1% formic acid, pH 3; B: methanol + 0.1% formic acid, pH 3; gradient (min/%B) 0/5 5/5 25/95 25.1/100 35/100 35.1/5 45/5
[15] = RP, Waters CORTECS T3, 100 × 2.1 mm, 2.7 µm, 0.3 mL/min, estimated dead time 0.73 min; A: water + 0.1% formic acid, pH 3; B: methanol + 0.1% formic acid, pH 3; gradient (min/%B) 0/0 1/0 6/5 30/100 35/100 35.1/0 40/0
[16] = RP, Waters ACQUITY UPLC BEH C18, 100 × 2.1 mm, 1.7 µm, 0.2 mL/min, estimated dead time 1.1 min; A: water + 0.025% formic acid + 20 mM ammonium acetate + 0.055% ammonium hydroxide, pH 7; B: methanol; gradient (min/%B) 0/5 5/5 25/100 30/100 30.1/5 35/5
[17] = HILIC, Waters XBridge BEH Amide, 100 × 2.1 mm, 2.5 µm, 0.5 mL/min, estimated dead time 0.44 min; A: water + 0.1% acetic acid + 10 mM ammonium acetate, pH 4; B: 5% water + 95% acetonitrile + 0.1% acetic acid + 10 mM ammonium acetate, pH 4; gradient (min/%B) 0/95 5/95 20/57 25/57 30/95 40/95

SMILES | LC retention time [1] [min] | LC retention time [2] [min] | LC retention time [3] [min] | LC retention time [4] [min] | LC retention time [5] [min] | LC retention time [6] [min] | LC retention time [7] [min] | LC retention time [8] [min] | LC retention time [9] [min] | LC retention time [10] [min] | LC retention time [11] [min] | LC retention time [12] [min] | LC retention time [13] [min] | LC retention time [14] [min] | LC retention time [15] [min] | LC retention time [16] [min] | LC retention time [17] [min]
CC1C(=O)Nc2ccccc21 (stereo unspecified) [3-METHYL-2-OXINDOLE] | 14.2 | 19.2 | 16.1 | 19.2 | 19.2 | 15.2 | 18.4 | 18.8 | 17 | 32.3 | 13.3 | 18.9 | 15.2 | 13.6 | – | – | –
CC12CCC(=O)C=C1CCC1C2C(O)CC2(C)C1CCC2(O)C(=O)CO (stereo unspecified) [CORTISOL] | 17.3 | 21.6 | 20 | 21.6 | 21.6 | 18.5 | 22 | 21.6 | 20.8 | – | 16.7 | 21.1 | 18.5 | 17.2 | 19.4 | 18.1 | –
CC12CCC(=O)C=C1CCC1C2C(=O)CC2(C)C1CCC2(O)C(=O)CO (stereo unspecified) [CORTISONE] | 16.9 | 21 | 19.5 | 21 | 21 | 18 | 21.4 | 21 | 20.2 | – | 16.3 | 20.5 | 18 | 16.7 | 18.9 | 17.6 | –
CC(=O)OCC(=O)C1CCC2C3CCC4=CC(=O)CCC4(C)C3CCC12C (stereo unspecified) [DEOXYCORTICOSTERONE ACETATE] | 20.8 | 25.3 | 24.4 | 25.3 | 25.3 | 22.4 | 26.3 | 25.4 | 25.2 | – | 20.4 | 24.5 | 22.4 | 21.1 | 23.8 | 21.6 | –
Cc1cc2nc[nH]c2cc1C [DIMETHYLBENZIMIDAZOLE] | 11.4 | 15.7 | 12.6 | 15.6 | 20.5 | 11.8 | 14.7 | 15.1 | 13.4 | – | 10.4 | 15.2 | 16.5 | 10.5 | 12 | 16.6 | 0.65
OCCc1c[nH]c2ccccc12 [INDOLE-3-ETHANOL] | 13.6 | 18.5 | 15.3 | 18.5 | 18.5 | 14.5 | 17.7 | 18 | 16.2 | – | 12.7 | 18.2 | 14.5 | 12.9 | 14.6 | 14.7 | –
CCCCCCCCCCCC(=O)OC(CC(=O)[O-])C[N+](C)(C)C (stereo unspecified) [LAUROYLCARNITINE] | 20.3 | 25.8 | 23.9 | 25.7 | 26.6 | 21.8 | 25.7 | 24.5 | 24.7 | 28.5 | 20 | 24.5 | 22.8 | 20.6 | 23.4 | 22.8 | –
CSc1ncnc2nc[nH]c12 [THIOPURINE S-METHYLETHER] | 11 | 15.2 | 12.1 | 15.2 | 15.3 | 11.4 | 14.4 | 15.1 | 12.9 | – | 9.81 | 15.1 | 11.7 | 9.92 | 11.4 | 11.7 | –
